Test results reported in publication PMC11050599, “Novel Tetracyclic Azaphenothiazines with the Quinoline Ring as New Anticancer and Antibacterial Derivatives of Chlorpromazine” (International Journal of Molecular Sciences, 2024).
Values after ≈ are worked out from the molar mass of the structure shown. Where two headings read alike, the source gives them in different places.

Columns and labels:
[1] = system: A549 (lung cancer); assay: MTT assay, A549 cells; assay type: cell-based, human; conditions: for IC50: MTT, 72 h, mean SD, read-out: IC50 A549; for SI A549: SI = IC50 for normal cell line (HaCaT)/IC50 cancer cell line
Description: (§1) The human cell lines, such as A549 (lung cancer), MDA-MB-231 (breast cancer), MiaPaca-2 (pancreatic cancer), PC3 (metastatic prostate cancer), HCT-116 (colon carcinoma), and HaCaT (immortalized keratinocytes), were sourced from the American Type Culture Collection (ATCC) in Rockville, USA. Culturing conditions varied as follows: HCT116 cells were cultured in MEM (ThermoSci, Waltham, MA, USA), A549, MDA-MB-231, MiaPaca, HaCaT cells in DMEM High Glucose and PC3 cells were cultured in RPMI (Biowest SAS, Nuaillé, France). The growth medium consisted of 10% fetal bovine serum (FBS, Sigma-Aldrich, St. Louis, MO, USA), 20 mM HEPES (Biowest, Nuaillé, France), and antibiotics (100 U/mL of penicillin and 100 μg/mL of streptomycin) from Gibco, Grand Island, NY, USA. […] These compounds were added to 96-well plates containing study cells (1 × 10^4 cells per well) and incubated for 72 h. […] Cell absorbance results were incorporated into the formula for calculating the relative MTT level (%), enabling the assessment of cell viability following exposure to the test compounds. The cell viability percentage represents the MTT reduction in cells treated with the test compounds compared to the control sample, where only the medium was added to the cells.

[2] = system: MDA-MB-231 (breast cancer); assay: MTT assay, MDA-MB-231 cells; assay type: cell-based, human; conditions: for IC50: MTT, 72 h, MDA-MB231, read-out: IC50 MDA; for SI MDA: SI = IC50 for normal cell line (HaCaT)/IC50 cancer cell line
Description: as §1

[3] = system: HaCaT (immortalized human keratinocytes); assay: MTT assay, HaCaT normal cells; assay type: cell-based; conditions: MTT, 72 h, normal cells
Description: as §1

[4] = system: MiaPaCa-2 (pancreas cancer); assay: MTT assay, MiaPaCa-2 cells; assay type: cell-based, human; conditions: for IC50: Homo sapiens, MIA PaCa-2, MTT, 72 h, read-out: IC50 MiaPaCa-2; for SI MiaPaCa-2: SI = IC50 for normal cell line (HaCaT)/IC50 cancer cell line
Description: as §1

[5] = system: PC3 (prostate cancer); assay: MTT assay, PC3 cells; assay type: cell-based, human; conditions: for IC50: Homo sapiens, PC-3, MTT, 72 h, read-out: IC50 PC3; for SI PC3: SI = IC50 for normal cell line (HaCaT)/IC50 cancer cell line
Description: as §1

[6] = system: HCT116 (colon cancer); assay: MTT assay, HCT116 cells; assay type: cell-based, human; conditions: for IC50: Homo sapiens, HCT-116, MTT, 72 h, read-out: IC50 HCT116; for SI HCT116: SI = IC50 for normal cell line (HaCaT)/IC50 cancer cell line
Description: as §1

[7] = system: E. coli ATCC 25922; assay: MIC broth microdilution; assay type: cell-based; conditions: 19 h, 35 °C; for MIC: Escherichia coli, ATCC25922, read-out: MIC E. coli ATCC 25922
Description: (§2) To evaluate the antibacterial effectiveness of chloroquinobenzothiazine derivatives, various bacterial strains from international microbe collections such as the American Type Culture Collection (ATCC) and the National Collection of Type Culture (NCTC) were examined, alongside a panel of clinical rods. This included two Gram-negative organisms, E. coli ATCC 25922 and P. aeruginosa ATCC 15442, and a series of six Gram-positive strains: S. aureus NCTC 4163; S. aureus ATCC 29213, 25923, and 6538; and S. epidermidis ATCC 12228 and 35984. […] The MIC was determined using the two-fold serial broth microdilution method in 96-well microtitration plates containing Mueller-Hinton II broth medium (Becton Dickinson, Franklin Lakes, NJ, USA). The final inoculum for all tested bacteria was adjusted to […] (colony-forming units per milliliter). The stock solution of the tested compounds was prepared in dimethyl sulfoxide (DMSO) and diluted to a maximum of 1% solvent content with a sterile medium.

[8] = system: P. aeruginosa ATCC 15442; assay: MIC broth microdilution; assay type: cell-based; conditions: 19 h, 35 °C; for MIC: Pseudomonas aeruginosa, ATCC15442, read-out: MIC P. aeruginosa ATCC 15442
Description: as §2

[9] = system: S. aureus ATCC 25923; assay: MIC broth microdilution; assay type: cell-based; conditions: 19 h, 35 °C; for MIC: Staphylococcus aureus, ATCC25923, read-out: MIC S. aureus ATCC 25923
Description: as §2

[10] = system: S. aureus ATCC 29213; assay: MIC broth microdilution; assay type: cell-based; conditions: 19 h, 35 °C; for MIC: Staphylococcus aureus, ATCC29213, read-out: MIC S. aureus ATCC 29213
Description: as §2

[11] = system: S. aureus ATCC 6538; assay: MIC broth microdilution; assay type: cell-based; conditions: 19 h, 35 °C; for MIC: Staphylococcus aureus, ATCC6538, read-out: MIC S. aureus ATCC 6538
Description: as §2

[12] = system: S. aureus NCTC 4163; assay: MIC broth microdilution; assay type: cell-based; conditions: 19 h, 35 °C; for MIC: Staphylococcus aureus, NCTC4163, read-out: MIC S. aureus NCTC 4163
Description: as §2

[13] = system: S. epidermidis ATCC 12228; assay: MIC broth microdilution; assay type: cell-based; conditions: 19 h, 35 °C; for MIC: Staphylococcus epidermidis, ATCC12228, read-out: MIC S. epidermidis ATCC 12228
Description: as §2

[14] = system: S. epidermidis ATCC 35984; assay: MIC broth microdilution; assay type: cell-based; conditions: 19 h, 35 °C; for MIC: Staphylococcus epidermidis, ATCC35984, read-out: MIC S. epidermidis ATCC 35984
Description: as §2

[15] = Homo sapiens, HaCaT, read-out: IC50 HaCaT (Table 3)

| Compound | IC50 ([1]; Homo sapiens, A549) [µM] | SI A549 [1] | IC50 ([2]; Homo sapiens, MDA-MB-231) [µM] | SI MDA [2] | IC50 [3, 15] [µM] | MIC [7] [µg/mL] | MIC [8] [µg/mL] | MIC [9] [µg/mL] | MIC [10] [µg/mL] | MIC [11] [µg/mL] | MIC [12] [µg/mL] | MIC [13] [µg/mL] | MIC [14] [µg/mL] | other results |
| --- | --- | --- | --- | --- | --- | --- | --- | --- | --- | --- | --- | --- | --- | --- |
| Clc1ccc2c(c1)N(CCN1CCCC1)c1nc3ccccc3cc1S2 [Compound 9, 8-Chloro-6-(2-(pyrrolidin-1-yl)ethyl)-quino[3,2-b]benzo[1,4]thiazine] | 17.4 ± 4.1 | 5.7 | 77.1 ± 1.6 | 1.3 | > 100 | > 256 | > 256 | 16 (≈ 41.9 µM) | 16 (≈ 41.9 µM) | 16 (≈ 41.9 µM) | 16 (≈ 41.9 µM) | 16 (≈ 41.9 µM) | 16 (≈ 41.9 µM) | IC50 [4]: 57.4 ± 9.6 µM; SI MiaPaCa-2 [4]: 1.7; IC50 [5]: 77.1 ± 9.4 µM; SI PC3 [5]: 1.3; IC50 [6]: 17.5 ± 1.4 µM; SI HCT116 [6]: 5.7 |
| Fc1ccc(Cn2cc(CN3c4cc(Cl)ccc4Sc4cc5ccccc5nc43)nn2)cc1 [Compound 30, 8-chloro-6-((1-(4-fluorobenzyl)-1H-1,2,3-triazol-4-yl)methyl)-quino[3,2-b]benzo[1,4]thiazine] | > 100 | 1.0 | > 100 | 1.0 | > 100 | > 256 | > 256 | > 256 | > 256 | > 256 | > 256 | > 256 | > 256 |  |
| Clc1ccc2c(c1)N(CCN1CCCCC1)c1nc3ccccc3cc1S2 [Compound 10, 8-Chloro-6-(2-(piperidin-1-yl)ethyl)-quino[3,2-b]benzo[1,4]thiazine] | 63.8 ± 8.5 | 1.6 | > 100 | 1.0 | > 100 | > 256 | > 256 | > 256 | > 256 | > 256 | > 256 | > 256 | > 256 |  |
| 8-Chloro-6-[(1-benzyl-1H-1,2,3-triazol-4-yl)-methyl]-quinobenzo[1,4]thiazine [Compound 29] |  | 1.0 |  | 1.0 |  |  |  |  |  |  |  |  |  | IC50 [1]: > 100 µM; IC50 [2]: > 100 µM; IC50 ([3]; read-out: IC50 HaCaT (Table 3)): > 100 µM; MIC E. coli ATCC 25922 [7]: >256 µg/mL; MIC P. aeruginosa ATCC 15442 [8]: >256 µg/mL; MIC S. aureus ATCC 25923 [9]: >256 µg/mL; MIC S. aureus ATCC 29213 [10]: >256 µg/mL; MIC S. aureus ATCC 6538 [11]: >256 µg/mL; MIC S. aureus NCTC 4163 [12]: >256 µg/mL; MIC S. epidermidis ATCC 12228 [13]: >256 µg/mL; MIC S. epidermidis ATCC 35984 [14]: >256 µg/mL |
| Clc1ccc2c(c1)N(Cc1cn(-c3ccccc3)nn1)c1nc3ccccc3cc1S2 [Compound 27, 8-Chloro-6-((1-phenyl-1H-1,2,3-triazol-4-yl)methyl)-quino[3,2-b]benzo[1,4]thiazine] | 27.5 ± 6.2 | 2.5 | > 100 | 0.7 | 70.2 ± 10.4 | > 256 | > 256 | > 256 | > 256 | > 256 | > 256 | > 256 | > 256 | IC50 ([3]; Homo sapiens, HaCaT, read-out: IC50 HaCaT (Table 4)): 71.7 ± 7.5 µM; IC50 [4]: 37.4 ± 5.6 µM; SI MiaPaCa-2 [4]: 1.9; IC50 [5]: > 100 µM; SI PC3 [5]: 1.0; IC50 [6]: 49.6 ± 4.7 µM; SI HCT116 [6]: 1.4 |
| CCOC(=O)NCCCN1c2cc(Cl)ccc2Sc2cc3ccccc3nc21 [Compound 18, Ethyl(3-(8-chloroquino[3,2-b]benzo[1,4]thiazin-6-yl)propyl)carbamate] | 86.6 ± 0.8 | 1.1 | > 100 | 1.0 | > 100 | > 256 | > 256 | > 256 | > 256 | > 256 | > 256 | > 256 | > 256 |  |
| 8-Chloro-6-[(1-(4-chlorobenzyl)-1H-1,2,3-triazol-4-yl)methyl]-quinobenzo[1,4]thiazine [Compound 31] |  | 1.0 |  | 1.0 |  |  |  |  |  |  |  |  |  | IC50 [1]: > 100 µM; IC50 [2]: > 100 µM; IC50 ([3]; read-out: IC50 HaCaT (Table 3)): > 100 µM; MIC E. coli ATCC 25922 [7]: >256 µg/mL; MIC P. aeruginosa ATCC 15442 [8]: >256 µg/mL; MIC S. aureus ATCC 25923 [9]: >256 µg/mL; MIC S. aureus ATCC 29213 [10]: >256 µg/mL; MIC S. aureus ATCC 6538 [11]: >256 µg/mL; MIC S. aureus NCTC 4163 [12]: >256 µg/mL; MIC S. epidermidis ATCC 12228 [13]: >256 µg/mL; MIC S. epidermidis ATCC 35984 [14]: >256 µg/mL |
